Results as given in patent US10137166B2, “Compositions and methods for affecting movement of contaminants, bodily fluids or other entities, and/or affecting other physiological conditions” (Massachusetts Institute of Technology, priority 2006, dated 2018).

Columns and labels:
[1] = tested on: branch of the superior sagittal sinus in the brains of rats and hamsters; assay: Transection of a branch of the superior sagittal sinus in the brain; hemostasis assessed visually from time-stamped video; assay type: in vivo
Experimental: Animals were anesthetized with an i.p. injection of ketamine (80 mg/kg) and xylazine (8 mg/kg). All surgical procedures were conducted under an operating microscope. Twenty-two animals, including 10 adult hamsters and 12 young adult female Spraque-Dawley rats (200-250 g), were treated with either iced saline or 20 μl of a 1% peptide solution at the site of the sinus branch transection. The material was prepared by dissolving RADA 16-1 (n-RADARADARADARADA-c; SEQ ID NO: 1) peptide in sterile water, and the peptide-containing solution was applied to the injured tissue with a 31 gauge needle attached to a 2 cc syringe.
The experiment was videotaped with a time stamp and was replayed one frame at a time to evaluate the length of time required for the peptide solution to form a gel, which effectively impeded bleeding. Hemostasis was assessed visually, and “complete hemostasis” was defined as the complete lack of movement of blood from the wound site.
Durations were measured from the start of application of peptide solution to the completion of hemostasis after transection of the veins leading to the sinus in the brains of adult rats. […] In the saline controls, cessation of bleeding was never achieved. The saline control experiment was terminated at the same time point in order to prevent the animals from bleeding to death.
A total of 22 rats and 64 hamsters have been subjected to experiments in which peptide-containing solutions effectively achieved hemostasis within 10 seconds following application to a site intracranial bleeding.

skin wounds = assay: 4 mm punch biopsy healing test of skin and subcutaneous tissue; assay type: in vivo; conditions: single application
Experimental: The regions from which the biopsies were taken were either treated by a single application of self-assembling peptide (RADA16-I) solution or were left untreated. The wounds were left unbandaged. A series of pictures of a 4 mm punch biopsy healing test in which injured animals were treated with the self assembling peptide and compared to matching cases with no treatment illustrates the results. The wounds were photographed on day 0, day 1, day 4, and day 7. […] Treatment with the peptide appeared to speed healing by as much as 5 days in some cases.

muscle of the hind limb = assay: Hind limb muscle wounds (porteocaudalis and musculus tibialis cranialis); hemostasis; assay type: in vivo
Excerpt: However when an artery or vein was transected 2% or higher material was needed to bring about hemostasis. With the application of iced saline alone, control animals continued to bleed after 20 seconds.

femoral artery = assay: Femoral artery transection; hemostasis; assay type: in vivo, adult rats
Experimental: The sciatic nerve and the adjacent femoral artery were exposed in adult rats, and the femoral artery was transected. Twelve rats were treated by application of 20 μl of a 1% solution of RADA 16-I peptide to the site of transection using a glass pipette attached to a syringe body, while controls were treated by applying cold saline to the site of transection. […] The saline control cases continued to bleed until the experiment was terminated at 110 seconds. […] A series of pictures was taken in an adult rat in which the femoral artery was transected. In the picture taken first, the sciatic nerve and the femoral artery are exposed. […] The assembled material can be suctioned off the site easily if desired.
In the saline controls, hemostasis was never reached.

[2] = tested on: liver and a major branch of the portal vein; assay: Liver, transverse cut transecting a major branch of the portal vein (higher pressure); hemostasis; assay type: in vivo
Experimental: A series of pictures illustrate the experiment. […] The cut was treated with 4% peptide solution applied topically and in the cut. All bleeding stopped within 10 seconds. […] Thus, application of 4% peptide solution brings about complete hemostasis in a high pressure bleeding environment in less than 10 seconds. […] This procedure was repeated several times with the same result.

[3] = tested on: liver (lobus sinistras laterialis); assay: Liver, removal of 1/4 of the lobe, topical treatment of the margin; hemostasis; assay type: in vivo
Experimental: In other experiments ¼ of the lobe in the lower right quadrant of the lobus sinistras laterialis was removed, and the margin was treated with a topical application of 2% peptide (RADA16-I) to the site of injury. Bleeding stopped in less than 10 seconds.

[4] = tested on: liver (lobus sinister lateralis); assay: Liver, rostral to caudal cut of the lobus sinister lateralis (relatively low pressure vessel); hemostasis; assay type: in vivo, adult rat; conditions: 1% peptide solution, topically and in the cut
Excerpt: Profuse bleeding ensued. A 1% peptide solution (RADA16-1) was applied to the cut and in its vicinity using a 27 gauge needle and 4 cc syringe. All bleeding stopped within 10 seconds. A series of pictures was obtained. […] After treating the site with 1% peptide solution (applied topically and in the cut), all bleeding stopped within 10 seconds. A clear area was observed between the two halves of the lobus sinister lateralis. This procedure was repeated several times with the same result.

spinotrapezius muscles = assay: Muscle trauma, deep cut in the spinotrapezius muscles on the back; hemostasis; assay type: in vivo, rat; conditions: 1% peptide solution applied in the cut
Excerpt: The spinotrapezius muscles on the back of the rats were exposed and a deep cut was made in the muscle, after which 1% peptide solution (RADA16-I) was applied in the cut. Within 10 seconds, all bleeding had stopped. With the application of iced saline alone, control animals continued to bleed after 20 seconds.

superior sagittal sinus = assay: Complete transection of the superior sagittal sinus; hemostasis; assay type: in vivo; conditions: control animals still bleeding after 20 seconds
Excerpt: A higher concentration of peptide (e.g., approximately 3%-4%) was used in the latter experiment in order to achieve hemostasis. The three saline control cases continued to bleed after 20 seconds.

intestine (duodenum) = assay: Perforated intestine at the level of the duodenum; leakage of gastric fluid; assay type: in vivo, adult rat
Experimental: An additional volume of 2% peptide solution was injected into the duodenum at the level of the injury. […] In the control cut at the level of the duodenum, the wall of the intestine inverted and gastric fluids continued to leak from the site of injury when left untreated.

[5] = control cut treated 15 minutes after the injury

Substance: n-RADARADARADARADA-c [RADA16-I]
- time to complete hemostasis after application of the peptide solution ([1]; 20 μl of a 1% peptide solution, rats and hamsters, all cases): ≤ 10 s
- hemostasis in picture series ([1]; adult rat, five seconds after the peptide solution was applied): Complete hemostasis was achieved
- average duration from start of application to completion of hemostasis ([1]; adult rats, transection of the veins leading to the sinus): 8.3 s
- wound healing versus untreated (skin wounds; contraction of the wound site as early as day 1): healed much faster
- speeding of healing versus no treatment (skin wounds; some cases): ≤ 5 days
- hemostasis in limb wounds (muscle of the hind limb; between 1% to 100% peptide): hemostasis was achieved in all cases
- material concentration needed to bring about hemostasis (muscle of the hind limb; when an artery or vein was transected): ≥ 2%
- time to hemostasis (femoral artery; 20 μl of a 1% solution, all treated cases): less than 10 seconds
- hemostasis in picture series (femoral artery; adult rat, after about five seconds): complete hemostasis was observed
- hemostasis after replacement of cold saline with the peptide solution (femoral artery; control animals): almost immediate achievement of complete hemostasis
- time complete hemostasis was maintained (femoral artery; duration of the test): ≥ 1 h
- hemostasis ([2]; 1% solution): partial cessation of bleeding
- hemostasis ([2]; 2% or 3% peptide solution): complete hemostasis was also achieved
- time until all bleeding stopped ([2]; 4% peptide solution, topically and in the cut): ≤ 10 s
- bleeding at later time ([2]; 4% peptide solution, ten minutes later, after physical stress): still no bleeding
- hemostasis after excess peptide structure was wiped away ([2]; 30 seconds after treatment): hemostasis was maintained
- hemostasis at the margin after the peptide was removed ([3]; 2% peptide, removed one minute later): complete hemostasis was achieved
- time until bleeding stopped ([3]; topical 2% peptide): less than 10 seconds
- time until all bleeding stopped [4]: ≤ 10 s
- time until all bleeding had stopped (spinotrapezius muscles): ≤ 10 s
- hemostasis after iced saline was removed and peptide solution applied (superior sagittal sinus): complete hemostasis almost immediately
- leakage of gastric fluids after treatment of the site (intestine (duodenum); 2% peptide solution): all leakage of gastric fluids from the intestine stopped
- leakage after additional volume injected into the duodenum (intestine (duodenum); 2% peptide solution, duration of the procedure): prevented all leakage from the intestine for one hour
- intestinal wall inversion (intestine (duodenum); [5]): stopped the progression of the intestinal wall inversion
- leakage when treated after the injury (intestine (duodenum); [5]): stopped all leakage from this injury site
